According to PMC7816196, “Antitubercular 2-Pyrazolylpyrimidinones: Structure–Activity Relationship and Mode-of-Action Studies” (Journal of Medicinal Chemistry, 2021):
Values after ≈ are worked out from the molar mass of the structure shown. Where two headings read alike, the source gives them in different places.

Key:
[1] = system: Mtb H37Rv; test: MIC against Mtb H37Rv, Alamar Blue broth microdilution; type: cell-based, Mycobacterium tuberculosis
[2] = Kinetic aqueous solubility at pH 7.4; type: physicochemical
Description: 3) In vitro ADME - assays
The kinetic solubility assay was p erfo rmed using a miniaturised shake flask method. 10 mM stock solutions of each of the test compounds were used to prepare calibration standards (10-220 µM) in DMSO. The same 10 mM stock soluti ons were accurately dispensed in duplicat e into 96-well plates and the DMSO dried down (MiVac GeneVac, 90 min, 37 °C). Thereafter, the samples were reconstituted (200 µM) in phosphate buffered saline (pH 7. 4) and shaken (20 hours,25 °C). The solutions were centrifuged, and the supernatant was an alysed by means of HPLC-DAD (Agilent 1200 Rapid Resolution HPLC with a diode array detector). Best fit calibration curves were constructed using the calibration standards, which were used to determine the aqueous samples’ solubility.4
The metabolic stability assay was performed in dup licate in a 96-well micro t itre plate. The test compounds (0.1 µM) were incubated individually in mouse, rat and pooled human liver microsomes (final protei n concentration of 0.4 m g/mL; XenoTech, Lenexa, KS), suspended in 0.1M phosphate buffer (pH 7.4) for predetermined time points, in the presence and abs ence of the cofactor NADPH (1 mM). Reactions were quenched by adding 300 µL of ice cold acetonitrile containing internal standard (carbamazepine, 0.0236 µg/mL). The samples were centrifuged and test in the supernatant were an alysed by means of LC-MS/MS ((Agilent Rapid Resolution HPLC, AB SCIEX 4500 MS). The rel ative loss of parent compound over time w as monitored and plots (concentration vs. time) were prepared per compound to determine the first order rate constant for compound depletion. This was in turn used to calculate h alf-life, in vitro intrinsic clearance and in vivo hepatic extraction ratio. Metabolite search es were not conducted during the met abolic stability assay.5

[3] = system: mmpL3-TetON; test: microbe, parasite or virus in culture; type: cell-based, M. tuberculosis; conditions: for MIC50 / MIC: Mycobacterium tuberculosis
[4] = system: WT H37Rv; test: microbe, parasite or virus in culture; type: cell-based, M. tuberculosis; conditions: Mycobacterium tuberculosis
[5] = Mycobacterium tuberculosis, H37RV, 168 h
[6] = Mycobacterium tuberculosis, H37RV, supplement csv, medium not stated
[7] = phosphate buffered saline, pH 7.4, aqueous (kinetic) solubility at pH 7.4, read-out: Solubility

## Cc1cc(Nc2ccc(F)cc2F)n(-c2nc(C(F)(F)F)cc(=O)[nH]2)n1 [Compound 41, 2-(5-((2,4-Difluorophenyl)amino)-3-methyl-1H-pyrazol-1-yl)-6-(trifluoromethyl)pyrimidin-4(3H)-one]
[1]; [5]
  MIC: 0.2 µM (≈ 0.0743 µg/mL)

## Cc1nn(-c2nc(C(F)(F)F)cc(=O)[nH]2)c(C)c1N1CCOCC1 [Compound 50, 2-(3,5-Dimethyl-4-morpholino-1H-pyrazol-1-yl)-6-(trifluoromethyl)pyrimidin-4(3H)-one]
[1]; [6]
  MIC: 6 µM (≈ 2.06 µg/mL)

## 2-(3-Methyl-5-oxo-2,5-dihydro-1H-pyrazol-1-yl)-6-phenylpyrimidin-4(1H)-one [Compound 13]
[1]
  MIC: >125 µM
[1]; supplement csv, medium not stated
  MIC: >125 µM
[2]; aqueous (kinetic) solubility at pH 7.4, read-out: Solubility
  solubility at 20 h: 190 µM

## Cc1cc(NC2CCOCC2)n(-c2nc(C(F)(F)F)cc(=O)[nH]2)n1 [Compound 39, 2-(3-Methyl-5-((tetrahydro-2H-pyran-4-yl)amino)-1H-pyrazol-1-yl)-6-(trifluoromethyl)pyrimidin-4(3H)-one]
[1]; [5]
  MIC: 1.5 to 2 µM (≈ 0.515 to 0.687 µg/mL)
[1]; [6]
  MIC: 1 µM (≈ 0.343 µg/mL)

## COCCNc1cc(C)nn1-c1nc(C(F)(F)F)cc(=O)[nH]1 [Compound 38, 2-(5-((2-Methoxyethyl)amino)-3-methyl-1H-pyrazol-1-yl)-6-(trifluoromethyl)pyrimidin-4(3H)-one]
[3]
  change in MIC on transcriptional silencing of mmpL3: no significant change
[3]; experiment: Follow-Up
  MIC50: 0.78 µM (≈ 0.247 µg/mL)
[3]; experiment: Initial
  MIC: 1.1 µM (≈ 0.349 µg/mL)
  MIC50: 0.47 µM (≈ 0.149 µg/mL)
[1]; [5]
  MIC: 1.5 to 2 µM (≈ 0.476 to 0.635 µg/mL)
[4]; experiment: Follow-Up
  MIC: 1.5 µM (≈ 0.476 µg/mL)
  MIC50: 0.87 µM (≈ 0.276 µg/mL)
[4]; experiment: Initial
  MIC: 1.1 µM (≈ 0.349 µg/mL)
  MIC50: 0.46 µM (≈ 0.146 µg/mL)
[2]; [7]
  solubility at 20 h: ≥ 200 µM

## CC(C)=CCC/C(C)=C/CNCCNC1C2CC3CC(C2)CC1C3 (stereo not drawn) [SQ109, reference compound]
[3]; experiment: Follow-Up
  MIC: 0.19 µM (≈ 0.0628 µg/mL)
  MIC50: 0.1 µM (≈ 0.0331 µg/mL)
[3]; experiment: Initial
  MIC: 0.27 µM (≈ 0.0893 µg/mL)
  MIC50: 0.071 µM (≈ 0.0235 µg/mL)
[4]; experiment: Follow-Up
  MIC: 0.98 µM (≈ 0.324 µg/mL)
  MIC50: 0.54 µM (≈ 0.179 µg/mL)
[4]; experiment: Initial
  MIC: 0.99 µM (≈ 0.327 µg/mL)
  MIC50: 0.39 µM (≈ 0.129 µg/mL)

## CCNc1cc(C)nn1-c1nc(C(F)(F)F)cc(=O)[nH]1 [Compound 34, 2-(5-(Ethylamino)-3-methyl-1H-pyrazol-1-yl)-6-(trifluoromethyl)pyrimidin-4(3H)-one]
[1]; [6]
  MIC: 6 µM (≈ 1.72 µg/mL)

## COc1cc(-c2ccccc2)nc(-n2nc(C)cc2C)n1 [Compound 3, 2-(3,5-Dimethyl-1H-pyrazol-1-yl)-4-methoxy-6-phenylpyrimidine]
[2]; [7]
  solubility at 20 h: ≥ 200 µM

## Cc1cc(Nc2ccc(C(=O)N(C)C)cc2)n(-c2nc(C(F)(F)F)cc(=O)[nH]2)n1 [Compound 43, N,N-Dimethyl-4-((3-Methyl-1-(6-oxo-4-(trifluoromethyl)-1,6-dihydropyrimidin-2-yl)-1H-pyrazol-5-yl)amino)benzamide]
[2]; [7]
  solubility at 20 h: ≥ 200 µM

## CC[C@@H](CO)NCCN[C@@H](CC)CO [Ethambutol, reference compound]
[3]; experiment: Follow-Up
  MIC: 4.9 µM (≈ 1 µg/mL)
  MIC50: 1.9 µM (≈ 0.388 µg/mL)
[3]; experiment: Initial
  MIC: 1.6 µM (≈ 0.327 µg/mL)
  MIC50: 1.3 µM (≈ 0.266 µg/mL)
[4]; experiment: Follow-Up
  MIC: 3.8 µM (≈ 0.776 µg/mL)
  MIC50: 1.4 µM (≈ 0.286 µg/mL)
[4]; experiment: Initial
  MIC: 2.4 µM (≈ 0.49 µg/mL)
  MIC50: 0.98 µM (≈ 0.2 µg/mL)

## Cc1cc(-c2ccccc2)n(-c2nc(C(F)(F)F)cc(=O)[nH]2)n1 [Compound 32, 2-(3-Methyl-5-phenyl-1H-pyrazol-1-yl)-6-(trifluoromethyl)pyrimidin-4(3H)-one]
[2]; [7]
  solubility at 20 h: ≥ 200 µM

## CCc1cc(C)nn1-c1nc(C(F)(F)F)cc(=O)[nH]1 [Compound 30, 2-(5-Ethyl-3-methyl-1H-pyrazol-1-yl)-6-(trifluoromethyl)pyrimidin-4(3H)-one]
[2]; [7]
  solubility at 20 h: ≥ 200 µM

## Cc1cc(C)n(-c2nc(-c3cccnc3)cc(=O)[nH]2)n1 [Compound 21, 2-(3,5-Dimethyl-1H-pyrazol-1-yl)-6-(pyridin-3-yl)pyrimidin-4(3H)-one]
[2]; [7]
  solubility at 20 h: ≥ 200 µM

## Cc1cc(Nc2ccc(C#N)cc2)n(-c2nc(C(F)(F)F)cc(=O)[nH]2)n1 [Compound 42, 4-((3-Methyl-1-(6-oxo-4-(trifluoromethyl)-1,6-dihydropyrimidin-2-yl)-1H-pyrazol-5-yl)amino)benzonitrile]
[1]; [5]
  MIC: 9 µM (≈ 3.24 µg/mL)
[1]; [6]
  MIC: 9 µM (≈ 3.24 µg/mL)

## Cc1cc(NCCO)n(-c2nc(C(F)(F)F)cc(=O)[nH]2)n1 [Compound 37, 2-(5-((2-Hydroxyethyl)amino)-3-methyl-1H-pyrazol-1-yl)-6-(trifluoromethyl)pyrimidin-4(3H)-one]
[2]; [7]
  solubility at 20 h: ≥ 200 µM

## Cc1cc(CN(C)C)nn1-c1nc(C(F)(F)F)cc(=O)[nH]1 [Compound 52, 2-(3-((Dimethylamino)methyl)-5-methyl-1H-pyrazol-1-yl)-6-(trifluoromethyl)pyrimidin-4(3H)-one]
[2]; [7]
  solubility at 20 h: ≥ 200 µM

## Cc1cc(NCCN(C)C)n(-c2nc(C(F)(F)F)cc(=O)[nH]2)n1 [Compound 36, 2-(5-((2-(Dimethylamino)ethyl)amino)-3-methyl-1H-pyrazol-1-yl)-6-(trifluoromethyl)pyrimidin-4(3H)-one]
[2]; [7]
  solubility at 20 h: ≥ 200 µM

## Cc1cc(Nc2ccc(N3CCOCC3)cn2)n(-c2nc(C(F)(F)F)cc(=O)[nH]2)n1 [Compound 46, 2-(3-Methyl-5-((5-morpholinopyridin-2-yl)amino)-1H-pyrazol-1-yl)-6-(trifluoromethyl)pyrimidin-4(3H)-one]
[1]; [5]
  MIC: 2 µM (≈ 0.843 µg/mL)
[1]; [6]
  MIC: 2 µM (≈ 0.843 µg/mL)

## Cc1cc(C)n(-c2nc(-c3ccc(F)cc3)cc(=O)[nH]2)n1 [Compound 19, 2-(3,5-Dimethyl-1H-pyrazol-1-yl)-6-(4-fluorophenyl)pyrimidin-4(3H)-one]
[1]; [6]
  MIC: 1 µM (≈ 0.284 µg/mL)

## Cc1nn(-c2nc(C(F)(F)F)cc(=O)[nH]2)c(C)c1Br [Compound 48, 2-(4-Bromo-3,5-dimethyl-1H-pyrazol-1-yl)-6-(trifluoromethyl)pyrimidin-4(3H)-one]
[2]; [7]
  solubility at 20 h: ≥ 200 µM

## Cc1cc(C)n(-c2nc(-c3ccccc3)cc(=O)n2C)n1 [Compound 4, 2-(3,5-Dimethyl-1H-pyrazol-1-yl)-3-methyl-6-phenylpyrimidin-4(3H)-one]
[2]; [7]
  solubility at 20 h: ≥ 200 µM

## Cc1cc(N)n(-c2nc(C(F)(F)F)cc(=O)[nH]2)n1 [Compound 33, 2-(5-Amino-3-methyl-1H-pyrazol-1-yl)-6-(trifluoromethyl)pyrimidin-4(3H)-one]
[2]; [7]
  solubility at 20 h: ≥ 200 µM

## Cn1ccnc1-c1nc(-c2ccccc2)cc(=O)[nH]1 [Compound 18, 2-(1-Methyl-1H-imidazole-2-yl)-6-phenylpyrimidin-4(1H)-one]
[2]; [7]
  solubility at 20 h: ≥ 200 µM

## Cc1cc(O)nc(-n2nc(C)cc2C)n1 [Compound 11, 2-(3,5-Dimethyl-1H-pyrazol-1-yl)-6-methylpyrimidin-4(3H)-one]
[1]; CH3 or CF3 at R1 instead of phenyl
  loss in activity: 10–15 fold

## Cc1cc(C)n(-c2nc(C(=O)Nc3ccc(F)cc3)cc(=O)[nH]2)n1 [Compound 26, 2-(3,5-Dimethyl-1H-pyrazol-1-yl)-N-(4-fluorophenyl)-6-oxo-1,6-dihydropyrimidine-4-carboxamide]
[2]; [7]
  solubility at 20 h: ≥ 200 µM

## Cc1cc(Nc2ccncc2)n(-c2nc(C(F)(F)F)cc(=O)[nH]2)n1 [Compound 44, 2-(3-Methyl-5-(pyridin-4-ylamino)-1H-pyrazol-1-yl)-6-(trifluoromethyl)pyrimidin-4(3H)-one]
[2]; phosphate buffered saline, pH 7.4, supplement csv, pH 7.4, read-out: SolubilitypH 7.4
  solubility at 20 h: 22 µM (≈ 7.4 µg/mL)
